One series relates to MCF-10A cells. The series can be described thus: Cell viability (cytotoxicity) MTT assay in non-tumorigenic MCF-10A cells. It is filed as cell-based, human. The note with it: 50 µM, 4 days.
Series [1] deals with A-549 human lung carcinoma cell line. The series can be described thus: Antiproliferative assay, A-549. The following applies: read-out: Antiproliferative Activity IC50 ± SEM, A-549; mean ± SEM.
Protocol: (§1) For a rigorous assessment, the widely accepted MTT assay [63, 64] was employed. Using Doxorubicin, a well-established drug, as the reference standard ensures a benchmark for the synthesized compounds, allowing a contextual understanding of their efficacy.
(§2) The MTT assay [63, 64] was employed for this assessment, with Doxorubicin as the reference drug.
(§3) 24h followed by the addition of synthesized compounds (in 200 μL medium to yield a final concentration of 0.1% (v/v) dimethyl sulfoxide) into individual wells of the plates. Four wells were designated to a single compound. The plates were allowed to incubate at 37°C for 96 h. After wards, the medium was aspirated and 3-[4,5-dimethylthiazol-2-yl]-2,5-diphenyltetrazolium bromide (MTT) (0.4 mg/mL) in medium was added to each well and subsequently incubated for 3 h. The medium was aspirated and 150 μL dimethyl sulfoxide (DMSO) was added to each well.
(§4) The plates were vortexed followed by the measurement of absorbance at 540 nm on a microplate
In series [2] the test system is MCF-7 human breast adenocarcinoma cell line. As to the kind of experiment: Antiproliferative assay, MCF-7. The note with it: read-out: Antiproliferative Activity IC50 ± SEM, MCF-7; mean ± SEM.
Protocol: as §1, §2, §3, §4
The test system of series [3] is HT-29 human colon cancer cell line. The series can be described thus: Antiproliferative assay, HT-29. The note with it: read-out: Antiproliferative Activity IC50 ± SEM, HT-29; mean ± SEM.
Protocol: as §1, §2, §3, §4
Series [4] deals with Panc-1 human pancreatic cancer cell line. As to the kind of experiment: Antiproliferative assay, Panc-1. The note with it: read-out: Antiproliferative Activity IC50 ± SEM, Panc-1; mean ± SEM.
Protocol: as §1, §2, §3, §4
The test system of series [5] is four cancer cell lines (A-549, MCF-7, Panc-1, HT-29). The series can be described thus: Antiproliferative assay, average over four cancer cell lines (GI50). The note with it: read-out: Average IC50 (GI50); average of IC50 against four cancer cell lines.
Protocol: as §1, §2, §3, §4
In another series the test system is BRAF^V600E. The note with it: cited from earlier work.
The test system of series [6] is cancer cell proliferation. The following applies: cited from earlier work.
The next series concerns the target EGFR (Homo sapiens, UniProt P00533). On the set-up: acids645–1186; His6 (N); made in house; host or cells: Sf-9 insect cells (baculovirus; pBlueBacHis2B / pFASTBacHTc). The following applies: cited from earlier work.

Chain of EGFR (P00533 669-1210): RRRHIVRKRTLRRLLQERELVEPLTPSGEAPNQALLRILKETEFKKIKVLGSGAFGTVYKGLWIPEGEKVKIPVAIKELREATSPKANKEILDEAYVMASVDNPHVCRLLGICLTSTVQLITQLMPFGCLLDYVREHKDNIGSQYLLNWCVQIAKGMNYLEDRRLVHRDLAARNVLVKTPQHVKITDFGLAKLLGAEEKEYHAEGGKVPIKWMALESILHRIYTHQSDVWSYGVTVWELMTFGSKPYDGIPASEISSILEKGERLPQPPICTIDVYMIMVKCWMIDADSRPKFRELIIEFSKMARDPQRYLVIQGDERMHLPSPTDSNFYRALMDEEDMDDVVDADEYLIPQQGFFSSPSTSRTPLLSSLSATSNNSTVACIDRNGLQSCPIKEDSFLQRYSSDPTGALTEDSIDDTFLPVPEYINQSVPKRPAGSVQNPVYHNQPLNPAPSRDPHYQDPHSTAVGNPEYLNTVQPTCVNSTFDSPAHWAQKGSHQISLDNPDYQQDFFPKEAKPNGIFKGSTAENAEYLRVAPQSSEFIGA

Consider “2-((3-Allyl-4-oxo-3,4-dihydroquinazolin-2-yl)thio)-N-(4-(4-(4-bromophenyl)-4-cyano-6-oxo-1,6-dihydropyridin-2-yl)phenyl)acetamide [Compound 20]”, for which the “Cell Viability %” value in the series with MCF-10A cells was found to be 91%. Besides, the IC50 in series [1] turned out to be 2000 ± 100 nM; in series [2] it was 1800 ± 100 nM; in series [3], 2100 ± 100 nM; in series [4] it was 2100 ± 100 nM; in [5], 2000 nM.
As to `COc1ccc(-c2cc(-c3ccc(OC)c(OC)c3)n(CC(=O)Nc3ccc(C4=NNC(c5ccc(OC)c(OC)c5)C4)cc3)c(=O)c2C#N)cc1OC` (stereo not drawn) [III], the half-maximal inhibitory concentration (IC50) with BRAF^V600E was 65 nM. Moreover, the GI50 in series [6] was 25 nM.
In the case of `C=CCn1c(SCC(=O)Nc2cccc(C(=O)/C=C/c3ccc(OC)cc3)c2)nc2ccccc2c1=O` [II], the values for the IC50 with BRAF^V600E and at EGFR were 650 nM and 110 nM, respectively.
Consider `COc1ccc(/C=C/C(=O)c2ccc(NC(=O)Cn3c(-c4ccc(OC)c(OC)c4)cc(-c4ccc(OC)c(OC)c4)c(C#N)c3=O)cc2)cc1` [IV], for which the concentration for half-maximal inhibition (IC50) in the series on BRAF^V600E is 58 nM. In addition, the GI50 in [6] is 720 nM.
